Results taken from US10781211B2, “Spirocycle compounds and methods of making and using same” (Lundbeck La Jolla Research Center, Inc., priority 2016, dated 2020).

Columns and labels:
FAAH = FAAH (Mus musculus (Mouse), UniProt O08914); assay: Mouse brain proteomes from inhibitor treated mice (oral gavage, sacrifice 4 h after administration, ABPP analysis), FAAH; format: in vivo; details: 5 mg/kg oral gavage
Protocol: (§1) Preparation of Mouse Brain Proteomes from Inhibitor Treated Mice.
(§2) Inhibitors were administered to wild-type C57Bl/6J by oral gavage in a vehicle, e.g. PEG400/Ethanol/PBS (7/2/1). Each animal was sacrificed 4 h following administration and brain proteomes were prepared and analyzed according to previously established methods (See Niphakis, M. J., et al. (2011) ACS Chem. Neurosci. and Long, J. Z., et al. Nat. Chem. Biol. 5:37-44). Data from this assay is shown in Table 2 (% inhibition at 5 mg/kg).

ABHD6 = ABHD6 (Mus musculus (Mouse), UniProt Q8R2Y0); assay: Mouse brain proteomes from inhibitor treated mice (oral gavage, sacrifice 4 h after administration, ABPP analysis), ABHD6; format: in vivo; details: 5 mg/kg oral gavage
Protocol: as §1, §2

Chain of ABHD6 (Q8R2Y0 whole entry): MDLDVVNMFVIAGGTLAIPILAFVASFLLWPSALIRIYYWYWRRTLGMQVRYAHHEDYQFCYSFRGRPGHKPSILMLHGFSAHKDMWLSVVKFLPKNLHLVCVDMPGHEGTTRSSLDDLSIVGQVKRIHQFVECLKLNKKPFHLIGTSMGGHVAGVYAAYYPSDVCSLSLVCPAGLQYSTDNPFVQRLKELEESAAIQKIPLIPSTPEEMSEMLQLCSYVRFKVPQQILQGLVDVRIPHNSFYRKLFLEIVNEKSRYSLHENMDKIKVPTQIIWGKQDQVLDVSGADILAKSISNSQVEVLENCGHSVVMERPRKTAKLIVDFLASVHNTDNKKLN
Chain of FAAH (O08914 whole entry): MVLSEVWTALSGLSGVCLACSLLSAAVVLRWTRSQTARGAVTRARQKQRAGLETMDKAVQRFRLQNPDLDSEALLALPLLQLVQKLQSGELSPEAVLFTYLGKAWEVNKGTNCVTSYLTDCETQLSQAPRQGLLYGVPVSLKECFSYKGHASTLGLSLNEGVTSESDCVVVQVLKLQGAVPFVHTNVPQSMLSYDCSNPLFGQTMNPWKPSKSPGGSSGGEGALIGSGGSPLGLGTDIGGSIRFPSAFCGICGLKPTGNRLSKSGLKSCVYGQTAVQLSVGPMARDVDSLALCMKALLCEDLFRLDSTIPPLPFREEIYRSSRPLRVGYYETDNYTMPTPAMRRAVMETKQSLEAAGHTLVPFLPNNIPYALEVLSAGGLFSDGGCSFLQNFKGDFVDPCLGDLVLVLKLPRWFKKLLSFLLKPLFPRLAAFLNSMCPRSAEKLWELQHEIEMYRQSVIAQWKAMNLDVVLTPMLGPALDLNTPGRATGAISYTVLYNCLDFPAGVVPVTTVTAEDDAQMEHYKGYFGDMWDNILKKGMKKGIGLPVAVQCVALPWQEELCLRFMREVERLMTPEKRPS

Row | SMILES | FAAH % Inh 5 mg/kg (mouse) (FAAH) | ABHD6 % Inh 5 mg/kg (mouse) (ABHD6)
1 | CC1(C)CC2(CCN(C(=O)OC(C(F)(F)F)C(F)(F)F)CC2)CN1Cc1ccc(Cl)cc1N1CCOCC1 [Example 50, 1,1,1,3,3,3-Hexafluoropropan-2-yl 2-(4-chloro-2-morpholinobenzyl)-3,3-dimethyl-2,8-diazaspiro[4.5]decane-8-carboxylate] | # (# is < 25%) | # (# is < 25%)
2 | CC1(C)CC2(CCN(C(=O)OC(C(F)(F)F)C(F)(F)F)CC2)CN1Cc1ccc(C(F)(F)F)cc1N1CCOCC1 [Example 51, 1,1,1,3,3,3-Hexafluoropropan-2-yl 3,3-dimethyl-2-(2-morpholino-4-(trifluoromethyl)benzyl)-2,8-diazaspiro[4.5]decane-8-carboxylate] | # (# is < 25%) | # (# is < 25%)
3 | CC1(C)CC2(CCN(C(=O)OC(C(F)(F)F)C(F)(F)F)CC2)CN1Cc1cccc(Cl)c1N1CCOCC1 [Example 54, 1,1,1,3,3,3-Hexafluoropropan-2-yl 2-(3-chloro-2-morpholinobenzyl)-3,3-dimethyl-2,8-diazaspiro[4.5]decane-8-carboxylate] | # (# is < 25%) | # (# is < 25%)
4 | O=C(OC(C(F)(F)F)C(F)(F)F)N1CCC2(CCN(Cc3cccc(Cl)c3N3CCC(F)(F)CC3)C2)CC1 [Example 64, 1,1,1,3,3,3-Hexafluoropropan-2-yl 2-(3-chloro-2-(4,4-difluoropiperidin-1-yl)benzyl)-2,8-diazaspiro[4.5]decane-8-carboxylate] | # (# is < 25%) | # (# is < 25%)
5 | O=C(OC(C(F)(F)F)C(F)(F)F)N1CCC2(CCCN2Cc2ccc(C(F)(F)F)cc2N2CCCC2)CC1 [Example 66, 1,1,1,3,3,3-Hexafluoropropan-2-yl 1-(2-(pyrrolidin-1-yl)-4-(trifluoromethyl)benzyl)-1,8-diazaspiro[4.5]decane-8-carboxylate] | # (# is < 25%) | # (# is < 25%)
6 | O=C(OC(C(F)(F)F)C(F)(F)F)N1CCC2(CCN(Cc3ccc(C(F)(F)F)cc3N3CCCC3)C2)CC1 [Example 72, 1,1,1,3,3,3-Hexafluoropropan-2-yl 2-(2-(pyrrolidin-1-yl)-4-(trifluoromethyl)benzyl)-2,8-diazaspiro[4.5]decane-8-carboxylate] | # (# is < 25%) | # (# is < 25%)
7 | O=C(OC(C(F)(F)F)C(F)(F)F)N1CCC2(CCCN2Cc2ccc(C(F)(F)F)cc2N2CC3CCC(C2)O3)CC1 [Example 73, 1,1,1,3,3,3-Hexafluoropropan-2-yl 1-(2-(8-oxa-3-azabicyclo[3.2.1]octan-3-yl)-4-(trifluoromethyl)benzyl)-1,8-diazaspiro[4.5]decane-8-carboxylate] | # (# is < 25%) | # (# is < 25%)
8 | O=C(OC(C(F)(F)F)C(F)(F)F)N1CCC2(CCCN2Cc2ccc(Cl)cc2N2CCCCC2)CC1 [Example 74, 1,1,1,3,3,3-Hexafluoropropan-2-yl 1-(4-chloro-2-(piperidin-1-yl)benzyl)-1,8-diazaspiro[4.5]decane-8-carboxylate] | # (# is < 25%) | # (# is < 25%)
9 | O=C(OC(C(F)(F)F)C(F)(F)F)N1CCC2(CCCN2Cc2ccc(C(F)(F)F)cc2N2CCCCC2)CC1 [Example 78, 1,1,1,3,3,3-Hexafluoropropan-2-yl 1-(2-(piperidin-1-yl)-4-(trifluoromethyl)benzyl)-1,8-diazaspiro[4.5]decane-8-carboxylate] | # (# is < 25%) | # (# is < 25%)
10 | CCN1CCN(c2cc(C(F)(F)F)ccc2CN2CCCC23CCN(C(=O)OC(C(F)(F)F)C(F)(F)F)CC3)CC1 [Example 87, 1,1,1,3,3,3-Hexafluoropropan-2-yl 1-(2-(4-ethylpiperazin-1-yl)-4-(trifluoromethyl)benzyl)-1,8-diazaspiro[4.5]decane-8-carboxylate] | # (# is < 25%) | # (# is < 25%)
11 | CC(=O)N1CCN(c2cc(C(F)(F)F)ccc2CN2CCCC23CCN(C(=O)OC(C(F)(F)F)C(F)(F)F)CC3)CC1 [Example 88, 1,1,1,3,3,3-Hexafluoropropan-2-yl 1-(2-(4-acetylpiperazin-1-yl)-4-(trifluoromethyl)benzyl)-1,8-diazaspiro[4.5]decane-8-carboxylate] | # (# is < 25%) | # (# is < 25%)
12 | O=C(OC(C(F)(F)F)C(F)(F)F)N1CCC2(CCCN2Cc2ccc(C(F)(F)F)cc2N2CCC(F)(F)CC2)CC1 [Example 90, 1,1,1,3,3,3-Hexafluoropropan-2-yl 1-(2-(4,4-difluoropiperidin-1-yl)-4-(trifluoromethyl)benzyl)-1,8-diazaspiro[4.5]decane-8-carboxylate] | # (# is < 25%) | # (# is < 25%)

Next, values leading:

Row | FAAH % Inh 5 mg/kg (mouse) (FAAH) | ABHD6 % Inh 5 mg/kg (mouse) (ABHD6) | SMILES
13 | # (# is < 25%) | # (# is < 25%) | CC(=O)NC1CCN(c2cc(Cl)ccc2CN2CCCC23CCN(C(=O)OC(C(F)(F)F)C(F)(F)F)CC3)CC1 [Example 104, 1,1,1,3,3,3-Hexafluoropropan-2-yl 1-(2-(4-acetamidopiperidin-1-yl)-4-chlorobenzyl)-1,8-diazaspiro[4.5]decane-8-carboxylate]
14 | # (# is < 25%) | # (# is < 25%) | O=C(COc1cc(CN2CCCC23CCN(C(=O)OC(C(F)(F)F)C(F)(F)F)CC3)cc(C(F)(F)F)c1)N1CCCC1 [Example 168, 1,1,1,3,3,3-Hexafluoropropan-2-yl 1-(3-(2-oxo-2-(pyrrolidin-1-yl)ethoxy)-5-(trifluoromethyl)benzyl)-1,8-diazaspiro[4.5]decane-8-carboxylate]
15 | # (# is < 25%) | # (# is < 25%) | O=C(OC(C(F)(F)F)C(F)(F)F)N1CCC2(CCCN2Cc2cc(OC3CCOCC3)cc(C(F)(F)F)c2)CC1 [Example 170, 1,1,1,3,3,3-Hexafluoropropan-2-yl 1-(3-(tetrahydro-2H-pyran-4-yloxy)-5-(trifluoromethyl)benzyl)-1,8-diazaspiro[4.5]decane-8-carboxylate]
16 | # (# is < 25%) | # (# is < 25%) | O=C(OC(C(F)(F)F)C(F)(F)F)N1CCC2(CCCN2Cc2ccc(C(F)(F)F)cc2Oc2cccnc2)CC1 [Example 173, 1,1,1,3,3,3-Hexafluoropropan-2-yl 1-(2-(pyridin-3-yloxy)-4-(trifluoromethyl)benzyl)-1,8-diazaspiro[4.5]decane-8-carboxylate]
17 | # (# is < 25%) | # (# is < 25%) | O=C(OC(C(F)(F)F)C(F)(F)F)N1CCC2(CCCN2Cc2cc(Oc3cccnc3)cc(C(F)(F)F)c2)CC1 [Example 174, 1,1,1,3,3,3-Hexafluoropropan-2-yl 1-(3-(pyridin-3-yloxy)-5-(trifluoromethyl)benzyl)-1,8-diazaspiro[4.5]decane-8-carboxylate]
18 | # (# is < 25%) | # (# is < 25%) | O=C(OC(C(F)(F)F)C(F)(F)F)N1CCC2(CCCN2Cc2cc(OC3CCS(=O)(=O)CC3)cc(C(F)(F)F)c2)CC1 [Example 176, 1,1,1,3,3,3-Hexafluoropropan-2-yl 1-(3-((1,1-dioxidotetrahydro-2H-thiopyran-4-yl)oxy)-5-(trifluoromethyl)benzyl)-1,8-diazaspiro[4.5]decane-8-carboxylate]
